This note sets out measurements from US20220235006A1, “PYRIDINE DERIVATIVES AS TMEM16A MODULATORS FOR USE IN THE TREATMENT OF RESPIRATORY CONDITIONS” (TMEM16A LIMITED, priority 2019, published 2022).

Format in all cases: in vitro ADME
Data set [1] can be described thus: Microsomal stability. The note with it: human microsomes 0.5 mg/mL; 1 μM; 1 mM NADPH. On the procedure:
Microsomes (human) were obtained from Bioreclamation.
All Test and reference control compounds (raloxifene, diclofenac, terfenadine, propranolol, dextromethorphan and metoprolol) were dissolved to create a 100 μM stock (final concentrations; 91.5% Acetonitrile: 8.5% DMSO). Final test compound concentration in incubation was 1 μM (<0.1% DMSO).
Solution 1: 17.4 g potassium phosphate dibasic anhydrous (K2HPO4, 0.1 M) dissolved in 1 L deionised water. Solution 2: 13.6 g potassium phosphate monobasic anhydrous (KH2PO4, 0.1 M) dissolved in 1 L deionised water. pH7.4 with 2 mM magnesium chloride. NADPH (10 mM) is prepared in deionised water.
Microsomes (all species) were removed from the −80° C. thawed at 37° C. Microsomes were diluted in assay buffer to achieve a final protein concentration of 0.5 mg/mL and 1 mM NADPH.
The following procedure was completed on a Perkin Elmer Janus robotic platform in 96 well format: The microsomal incubation plate was transferred to a heater shaker at 300 rpm and solution heated to 37° C. for 10 min pre-warm. A no co-factor control at 0 and 45 min and one replicates of each test compound was included in every assay. Microsomes were incubated at 37° C., on a shaker set at 300 rpm throughout the assay. […] Samples were diluted 1:1 with water using the Janus Robot and analysed by […]

Data set [2] has as its system Cryopreserved hepatocytes (human). Briefly: Hepatic stability (cryopreserved hepatocytes). The note with it: 1 μM.
Method: Cryopreserved hepatocytes (human) were obtained from Bioreclamation.
Test compounds and reference controls (raloxifene, diclofenac, terenadine, propranolol, dextromethorphan and metoprolol) were dissolved in a 100 μM stock was prepared by diluting 5 μL of 4 mM (DMSO) in 195 μL of 50:50 DMSO:hepatocyte buffer. Final test compound concentration in incubation was 1 μM.
The hepatocyte buffer was prepared (Williams E media containing phenol red and Glutamax™, 15 mM HEPES, warmed to 37° C., pH7.4 with NaOH). Hepatocyte cells (all main species) were removed from liquid nitrogen, thawed in a waterbath, decanted into 50 mL of pre-warmed Cryopreserved Hepatocyte Recovery Media (LifeTechnologies) and centrifuged. Supernatant fraction was removed, cells were re-suspended in hepatocyte buffer and counted by trypan blue exclusion. Cell viability of >80% was required for all assays.
2 μL of 100 μM compound stock solution was added to relevant wells to initiate the incubation. A no cell control and two replicates of each test compound was included in every assay. Cells were incubated at 37° C., on a shaker set at 300 rpm. […] Samples were diluted 1:1 with water using the Janus Robot and analysed by LC-MS/MS.
Data set [3] is described as follows: Parallel artificial membrane permeability assay (PAMPA). The note with it: 200 μM, 16 hours. On the procedure: Parallel artificial membrane permeability assay (PAMPA) permeability data is a useful tool to predict passive permeability through biological lipid membranes. […] Passive permeability (>0.1 and <10×10^−6 cm/s) may still give good absorption properties.
All Test compounds were formulated in DMSO to 20 mM. Final concentration of all compounds in the assay was 200 μM with final DMSO concentration of 1%. The following reference controls were used: Antipyrine, Carbamazepine, Propranolol, Ranitidine and Ketoprofen.
The solutions were filtered and 150 μL transferred to a High Sensitivity 96 well UV plate. This was analysed by UV as the reference plate. A 200 μL sample of the 200 μM solution was transferred to the ‘donor’ plate of the PAMPA plon sandwich plate system. […] Donor and acceptor plates were sandwiched and kept in a humid environment at room temperature for 16 hours. On completion of the incubation the donor and acceptor plates were separated. 150 μL of solution was transferred from each of the donor and acceptor PAMPA sandwich plates into High Sensitivity 96 well UV plates for analysis by UV. Passive permeability (Pe 10^−6 cm/second) was determined for each compound tested. Control compounds were compared with historic and literature values to ensure assay functionality.

A short description of data set [4]: Caco-2 permeability assay. The note with it: human, Caco-2, pH 7.4; for efflux ratio at 2 h, 10 μM: B-A/A-B; for Papp B→A at 2 h, 10 μM: basolateral to apical, pH7.4. On the procedure:
Caco2 permeability data provides a measure of a compound's permeability, and its potential for efflux by P-glycoprotein. […] This assay therefore provides an indication of which compounds are likely to be suitable for oral administration.
Caco-2 cells were purchased from ATCC and passaged to create a bank of cells. Cells were not used post 20 passages.
All test and reference compounds (metoprolol (passive permeability) and atenolol (pgp substrate)) were formulated in DMSO to 20 mM.
96-well plates were seeded with 9×10^3 Caco-2 cells/well in DMEM, 10% FBS, 1% NEAA, 1% pen/strep and maintained at 37° C., in a highly humidified atmosphere of 95% air and 5% CO2. Plates were ready for use on day 21.
10 mM DMSO stock test compounds were diluted to 1 mM in DMSO. Two replicates of each test compound were included in every assay. Final concentration of donor solution was 10 μM.
Assay transport buffer (25 mM HEPES/Hanks Balanced Salt Solution (HBSS), pH7.4) was prepared to wash the cells, create lucifer yellow (LY) stock solutions, receiver solutions and blanks for the transport assay. Final concentration of LY was 10 μM. Basolateral wells were treated with 250 μL of 10 μM dosing drug solution or 250 μL Transport Buffer. Apical wells were treated with 75 μL drug dosing solution or 75 μL Transport Buffer. The two plates were sandwiched together and cells were incubated with test compounds for 2 hours, shaking at 50 rpm, 37° C., 0% CO2.
A calibration curve was prepared for each compound; DMSO stock solutions were serially diluted from 300 μM to 100 μM, 30 μM, 10 μM, 3 μM, 1 μM and 0.3 μM in DMSO. 2 μL of each concentration was diluted into 198 μL of Sample Quench Solution (50% acetonitrile containing 500 nM tolbutamide). 50 μL of each calibration solution was then diluted in 50 μL Dosing Buffer (modified HBSS containing LY). Finally this plate was diluted 1:10 using a Janus robot in Robot Dilution Quench Solution (35% acetonitrile containing 250 nM tolbutamide).
Following a 2 h incubation, 50 μL of sample was removed from each well (apical and basolateral) and added to the T2 sample plate. Lucifer Yellow fluorescence was analysed using Spectrafluor Plus featuring the XFluor software to determine membrane integrity.
Following the fluorescence plate read, 50 μL Sample Quench Solution was then added to the T2 sample plate. Plates were diluted 1:10 and/or 1:100 into opaque 384-well plates using a Janus Robot. 1:100 dilution transfers were created sequentially directly from 1:10 dilutions. All dilutions were created using Robot Dilution Quench Solution (35% acetonitrile containing 250 nM tolbutamide). All samples were analysed by LC-MS/MS.

For `CC(C)(C)NC(=O)c1cc(NC(=O)Cc2cc(O)c(C(C)(C)C)cc2F)ccn1` [91 of PCT/GB2019/050209, reference compound], in data set [1], the “Human Microsome CIint” value amounted to 51.0 µL/min/mg. The “Human Hepatocyte CIint” value in data set [2] is on record as 15.6 μL/min/million cells.
On to `CC(C)(C#N)NC(=O)c1cc(NC(=O)Cc2ccc(C(C)(C)C)c(O)c2)ccn1` [93.4 of PCT/GB2019/050209, reference compound], for which the “PAMPA Pe (pH 5.0)” value in data set [3] (pH 5.0) is listed as 30.9 ×10^−4 cm/s. In data set [3] (pH 6.2), the “PAMPA Pe (pH 6.2)” value is recorded as 38.4 ×10^−4 cm/s. The “PAMPA Pe (pH 7.4)” value in data set [3] (pH 7.4) is given as 36.4 ×10^−4 cm/s. Further, the “Human Microsome CIint” value in data set [1] was 32.8 µL/min/mg. In data set [2], the “Human Hepatocyte CIint” value came out at 24.1 μL/min/million cells.
For the compound `CC(C#N)NC(=O)c1cc(NC(=O)Cc2cc(O)c(C(C)(C)C)cc2F)ccn1` (centres unmarked) [Example 1.3], in data set [4], the efflux ratio (usually a quotient of directional permeabilities that is used to spot active efflux) at 2 h, 10 μM turned out to be 0.9 and the Papp B→A – broadly, how fast a substance crosses the layer from the basolateral side – at 2 h, 10 μM is 2.5 ×10⁻⁶ cm/s.
With `CC(C)(O)c1cc(F)c(CC(=O)Nc2ccnc(C(=O)NC3(C(F)(F)F)CC3)c2)cc1O` [Example 2, 4-[[2-[2-Fluoro-5-hydroxy-4-(1-hydroxy-1-methyl-ethyl)phenyl]acetyl]amino]-N-[1-(trifluoromethyl)cyclopropyl]pyridine-2-carboxamide], in data set [4], the efflux ratio at 2 h, 10 μM amounted to 1.8 and the Papp B→A at 2 h, 10 μM turned out to be 5.7 ×10⁻⁶ cm/s.
The matching figures for `CC(C)(CO)c1cc(F)c(CC(=O)Nc2ccnc(C(=O)NC3(C(F)(F)F)CC3)c2)cc1O` [Example 2.6, 4-[[2-[2-Fluoro-5-hydroxy-4-(2-hydroxy-1,1-dimethyl-ethyl)phenyl]acetyl]amino]-N-[1-(trifluoromethyl)cyclopropyl]pyridine-2-carboxamide]: 2.4 and 5.3 ×10⁻⁶ cm/s.
On to `CCC(C)(O)c1cc(F)c(CC(=O)Nc2ccnc(C(=O)NC3(C(F)(F)F)CC3)c2)cc1O` (centres unmarked) [Example 2.11, 4-[[2-[2-Fluoro-5-hydroxy-4-(1-hydroxy-1-methyl-propyl)phenyl]acetyl]amino]-N-[1-(trifluoromethyl)cyclopropyl]pyridine-2-carboxamide], for which the efflux ratio at 2 h, 10 μM in data set [4] came to 1.
Turning to `O=C(Cc1cc(O)c(C2(CO)CCC2)cc1F)Nc1ccnc(C(=O)NC2(C(F)(F)F)CC2)c1` [Example 2.13, 4-[[2-[2-Fluoro-5-hydroxy-4-[1-(hydroxymethyl)cyclobutyl]phenyl]acetyl]amino]-N-[1-(trifluoromethyl)cyclopropyl]pyridine-2-carboxamide], in data set [4], the efflux ratio at 2 h, 10 μM worked out at 2.6 and the Papp B→A at 2 h, 10 μM is 6.1 ×10⁻⁶ cm/s.
On to `CC(C)(CCO)c1cc(F)c(CC(=O)Nc2ccnc(C(=O)NC3(C(F)(F)F)CC3)c2)cc1O` [Example 11, 4-[[2-[2-Fluoro-5-hydroxy-4-(3-hydroxy-1,1-dimethyl-propyl)phenyl]acetyl]amino]-N-[1-(trifluoromethyl)cyclopropyl]pyridine-2-carboxamide], for which, in data set [4], the efflux ratio at 2 h, 10 μM was 2.3 and the basolateral-to-apical permeability (Papp B→A) at 2 h, 10 μM amounted to 5.5 ×10⁻⁶ cm/s.
In the same order, the values of `CC(C)(CO)c1cc(Cl)c(CC(=O)Nc2ccnc(C(=O)NC3(C(F)(F)F)CC3)c2)cc1O` [Example 14, 4-[[2-[2-Chloro-5-hydroxy-4-(2-hydroxy-1,1-dimethyl-ethyl)phenyl]acetyl]amino]-N-[1-(trifluoromethyl)cyclopropyl]pyridine-2-carboxamide] are 2.8 and 4.9 ×10⁻⁶ cm/s.
`Cc1cc(C(C)(C)CO)c(O)cc1CC(=O)Nc1ccnc(C(=O)NC2(C(F)(F)F)CC2)c1` [Example 14.1, 4-[[2-[5-Hydroxy-4-(2-hydroxy-1,1-dimethyl-ethyl)-2-methyl-phenyl]acetyl]amino]-N-[1-(trifluoromethyl)cyclopropyl]pyridine-2-carboxamide]: in data set [4], the efflux ratio at 2 h, 10 μM is 2.8 and the Papp B→A at 2 h, 10 μM is 6 ×10⁻⁶ cm/s.
The matching figures for `CC(C)(CO)c1cc(Cl)c(CC(=O)Nc2ccnc(C(=O)NC3(C(F)F)CC3)c2)cc1O` [Example 15.3, 4-[[2-[2-Chloro-5-hydroxy-4-(2-hydroxy-1,1-dimethyl-ethyl)phenyl]acetyl]amino]-N-[1-(difluoromethyl)cyclopropyl]pyridine-2-carboxamide]: 19.8 and 7.2 ×10⁻⁶ cm/s.
The matching figures for `O=C(Cc1cc(O)c(C(CO)C(F)(F)F)cc1F)Nc1ccnc(C(=O)NC2(C(F)(F)F)CC2)c1` (centres unmarked) [Example 17, 4-[[2-[2-Fluoro-5-hydroxy-4-[2,2,2-trifluoro-1-(hydroxymethyl)ethyl]phenyl]acetyl]amino]N-[1-(trifluoromethyl)cyclopropyl]pyridine-2-carboxamide]: 20.7 and 7.8 ×10⁻⁶ cm/s.
